Reference: patent publication EP0403882A2, “Indole derivatives and processes for preparation thereof” (FUJISAWA PHARMACEUTICAL CO., LTD., priority 1989, dated 1990)

Key:
Benzold-Jarisch reflex = test: Inhibition of Benzold-Jarisch reflex (bradycardic response to 2-methyl-5-hydroxytryptamine in anesthetized rats); type: in vivo, Male Sprague-Dawley rats; conditions: dose 3.2 μg/kg iv, given 5 minutes before 2-methyl-5-hydroxytryptamine (32 ug/kg, iv), urethane-anesthetized rats
Excerpt: (A) Inhibition of Benzold-Jarisch reflex
Male Sprague-Dawley rats weighing 260-350 g were anesthetized intraperitoneally with 1.25 g/kg urethane.
Blood pressure and heart rate were monitored continuously from the left common carotid artery with a pressure transducer. A right femoral vein was connulated for the intravenous injection (iv) of drugs. The trachea was also connulated to ease the respiration.
Rats were given a rapid bolus injection of 2-methyl-5-hydroxytryptamine (32 u.g/kg, iv) to establish the control bradycardic response. Once the heart rate returned to base line, the .rats were given the test compound (iv), followed by 5-minutes interval and another bolus injection of 2-methyl-5-hydroxytryptamine (32 ug/kg, iv).

[1] = system: Cisplatin-induced vomiting; test: Inhibition of Cisplatin-induced vomiting; type: in vivo, female beagles; conditions: dose 100 μg/kg intravenously twice, 10 minutes prior to and 90 minutes after Cisplatin (3.2 mg/kg, iv); observed up to 5 hours
Procedure: (B) Inhibition of Cisplatin-induced vomiting
Nonfasted female beagles weighing about 10 kg were administered test compound or saline intravenously twice 10 minutes prior to and 90 minutes after Cisplatin dosing (3.2 mg/kg, iv).
Cisplatin was dissolved in 0.9% warm saline with a final concentration of 3 mgiml and used immediately.

Structure (SMILES): Cc1cn(C(=O)CC2CC3CCC(C2)N3C)c2ccccc12.Cl (centres unmarked) [Example 2, 3-methyl-1-[(8-methyl-8-azabicyclo[3.2.1]oct-3-yl)acetyl]indole hydrochloride]
- Inhibition (%) (Benzold-Jarisch reflex): 52.9%
- Inhibition (%) [1]: 95.2%
